Results as given in patent US5041238A, “o,o'-Bridged oligophenylene laser dyes, dyestuff lasers and methods of lasing therewith” (Exciton Chemical Company, priority 1988, dated 1991).
Values belong to the compound of their own block, whether it stands above or below them.

Columns and labels:
[1] = Fluorescence emission spectrum (Perkin-Elmer MPF-44A); assay type: physicochemical; conditions: for Fluorescence peak 1, intensity / Fluorescence peak 1, wavelength / Fluorescence peak 2, intensity / Fluorescence peak 2, wavelength / Fluorescence emission peak 1, intensity / Fluorescence emission peak 1, wavelength / Fluorescence emission peak 2, intensity / Fluorescence emission peak 2, wavelength: slits 2 nm; for Fluorescence emission peak 1, intensity / Fluorescence emission peak 1, wavelength / Fluorescence emission peak 2, intensity / Fluorescence emission peak 2, wavelength: excitation 265 nm
Text: (§1) The fluorescence emission spectrum for the dye 9,9-dipropylfluorene as illustrated in FIG. 1 was detected on a Perkin-Elmer MPF-44A, the slits were set at 2 nm and the excitation light was at 265 nm. The Fluorescence Quantum Efficiency (FQE) was about the same as that of fluorene - 55%; and the fluorescence emission peaks at 306 nm(intensity 86) and 316 nm(intensity 67) were also similar to those of fluorene [the fluorescence emission spectrum for fluorene as illustrated in FIG. 5 was also detected on a Perkin-Elmer MPF-44A, the slits were set at 2 nm and the excitation light was at 265 nm and the fluorescence emission peaks for fluorene are at 303 nm(intensity 93) and 311 nm(intensity 73)].
This dye had two fluorescence peaks of almost equal intensity at 360 nm(intensity 33) and 378 nm(intensity 28) as illustrated in FIG. 2. […] The fluorescence emission spectrum of the dye 9,9,9',9'-tetrapropyl-2,2'-bifluorene was detected on a Perkin-Elmer MPF-44A, the slits were set at 2 nm and the excitation light was at 331 nm.
(§2) This dye had fluorescence peaks at 324 nm(intensity 90) and 338 nm(intensity 76) and a reported fluorescence quantum yield of 100% in cyclohexane as illustrated in FIG. 3. […] The fluorescence emission spectrum for the dye 3-phenyldibenzofuran as illustrated in FIG. 3 was detected on a Perkin-Elmer MPF-44A, the slits were set at 2 nm and the excitation light was at 301 nm.
The dye, 3,3'-bi(dibenzofuran), was prepared in accordance with the process disclosed in H. O. Wirth, G. Waese and W. Kern: Synthese Und Eigenschaften Von: Oxydo-p-oligophenylenen. Makromol. Chem. 86: 139(1965) which is incorporated herein in its entirety by reference, and was purified by extraction from Brockmann Activity I alumina with chloroform in an Ace-Kauffman column to give a white solid, mp 249.5°-250.5° C. (lit.mp 252.5° C.). This dye had two fluorescence peaks of almost equal intensity at 353 nm(intensity 47) and 369 nm(intensity 30) in cyclohexane as illustrated in FIG. 4.

[2] = Solubilities of o,o'-bridged oligophenylenes at 21° C. in laser solvents; assay type: physicochemical; conditions: comparison in laser solvents
Method: SOLUBILITIES OF o,o'-BRIDGED OLIGOPHENYLENES AT 21° C.

[3] = Fluorescence quantum efficiency / quantum yield; assay type: physicochemical
Text: as §1, §2

[4] = cyclohexane; cited from earlier work
[5] = Violet fluorescence in alcohols; assay type: physicochemical
Method: The dye, 9,9'-diethyl-2,2'-bicarbazole, was prepared from the above intermediate as follows. To a mixture of 1.10 g (4 mMol) of 2-bromo-9-ethylcarbazole and 0.096 g of cut magnesium ribbon in 4 ml of refluxing ether was added 50 microliters of 1,2-dibromoethane. Refluxing was continued for 18 hrs. The solution was cooled and 386 microliters (0.455 g) of cis-1,4-dichloro-2-butene was added. As the solution was returned to reflux, a precipate appeared. After three hours the mixture was filtered. The solid was recrystallized from 2-methoxyethanol with a hot filtration to give 0.124 g (12% of theory) of product, mp 239°-40° C.

Fluorescence peak 1, intensity ([1]; cyclohexane, excitation 301 nm): 90
Fluorescence peak 1, wavelength ([1]; cyclohexane, excitation 301 nm): 324 nm
Fluorescence peak 2, intensity ([1]; cyclohexane, excitation 301 nm): 76
Fluorescence peak 2, wavelength ([1]; cyclohexane, excitation 301 nm): 338 nm
Solubility compared with another dye (words) [2]: much greater than that of p-terphenyl
FQE in methanol compared with cyclohexane [3]: the same in methanol as in cyclohexane
Structure (SMILES): c1ccc(-c2ccc3c(c2)oc2ccccc23)cc1 [3-phenyldibenzofuran]
Solubility compared with another dye (words) ([2]; listed as 3phenyldibenzofuran): much more soluble in methanol, 50% ethanol, 95% ethanol and absolute
Fluorescence quantum yield (reported) [4]: 100%

Structure (SMILES): c1ccc2c(c1)oc1cc(-c3ccc4c(c3)oc3ccccc34)ccc12 [3,3'-bi(dibenzofuran)]
Fluorescence emission spectrum compared with dye of Example 2 [1]: almost superimposable on that of the dye discussed in Example 2
Fluorescence peak 1, intensity ([1]; cyclohexane, excitation 323 nm): 47
Fluorescence peak 1, wavelength ([1]; cyclohexane, excitation 323 nm): 353 nm
Fluorescence peak 2, intensity ([1]; cyclohexane, excitation 323 nm): 30
Fluorescence peak 2, wavelength ([1]; cyclohexane, excitation 323 nm): 369 nm
Solubility compared with another dye (words) [2]: greater than that of 2,2'-bifluorene

Structure (SMILES): CCn1c2ccccc2c2ccc(-c3ccc4c5ccccc5n(CC)c4c3)cc21 [9,9'-diethyl-2,2'-bicarbazole]
Violet fluorescence in alcohols compared with compounds of Examples 2 and 4 [5]: brighter violet fluorescence in alcohols than the compounds of Examples 2 and 4

Fluorescence peak 1, intensity ([1]; excitation 331 nm): 33
Fluorescence peak 1, wavelength ([1]; excitation 331 nm): 360 nm
Fluorescence peak 2, intensity ([1]; excitation 331 nm): 28
Fluorescence peak 2, wavelength ([1]; excitation 331 nm): 378 nm
Structure (SMILES): CCCC1(CCC)c2ccccc2-c2ccc(-c3ccc4c(c3)C(CCC)(CCC)c3ccccc3-4)cc21 [9,9,9',9'-tetrapropyl-2,2'-bifluorene]
Solubility compared with another dye (words) [2]: more soluble than 2,2'-bifluorene in solvents

Fluorescence emission peak 1, intensity [1]: 86
Fluorescence emission peak 1, wavelength [1]: 306 nm
Fluorescence emission peak 2, intensity [1]: 67
Fluorescence emission peak 2, wavelength [1]: 316 nm
Structure (SMILES): CCCC1(CCC)c2ccccc2-c2ccccc21 [9,9-dipropylfluorene]

Fluorescence emission peak 1, intensity [1]: 93
Fluorescence emission peak 1, wavelength [1]: 303 nm
Fluorescence emission peak 2, intensity [1]: 73
Fluorescence emission peak 2, wavelength [1]: 311 nm
Structure (SMILES): c1ccc2c(c1)Cc1ccccc1-2 [fluorene, reference compound]
